Results from patent publication US20220033397A1, “PHARMACEUTICAL COMPOUNDS AND THEIR USE AS INHIBITORS OF UBIQUITIN SPECIFIC PROTEASE 19 (USP19)” (ALMAC DISCOVERY LIMITED, priority 2018, published 2022).

target: T1, Full-length USP19 (Homo sapiens, UniProt O94966); test: USP19 fluorescence polarisation (FP) homogeneous assay with Ubiquitin-Lys-TAMRA substrate; format: biochemical; conditions: 2.5 nM USP19, 30 min pre-incubation, average of at least two duplicate experiments
T1 construct: Full-length USP19 was purchased from Boston Biochem (E-576); purchased Boston Biochem E-576
T1 sequence (O94966 1-1318): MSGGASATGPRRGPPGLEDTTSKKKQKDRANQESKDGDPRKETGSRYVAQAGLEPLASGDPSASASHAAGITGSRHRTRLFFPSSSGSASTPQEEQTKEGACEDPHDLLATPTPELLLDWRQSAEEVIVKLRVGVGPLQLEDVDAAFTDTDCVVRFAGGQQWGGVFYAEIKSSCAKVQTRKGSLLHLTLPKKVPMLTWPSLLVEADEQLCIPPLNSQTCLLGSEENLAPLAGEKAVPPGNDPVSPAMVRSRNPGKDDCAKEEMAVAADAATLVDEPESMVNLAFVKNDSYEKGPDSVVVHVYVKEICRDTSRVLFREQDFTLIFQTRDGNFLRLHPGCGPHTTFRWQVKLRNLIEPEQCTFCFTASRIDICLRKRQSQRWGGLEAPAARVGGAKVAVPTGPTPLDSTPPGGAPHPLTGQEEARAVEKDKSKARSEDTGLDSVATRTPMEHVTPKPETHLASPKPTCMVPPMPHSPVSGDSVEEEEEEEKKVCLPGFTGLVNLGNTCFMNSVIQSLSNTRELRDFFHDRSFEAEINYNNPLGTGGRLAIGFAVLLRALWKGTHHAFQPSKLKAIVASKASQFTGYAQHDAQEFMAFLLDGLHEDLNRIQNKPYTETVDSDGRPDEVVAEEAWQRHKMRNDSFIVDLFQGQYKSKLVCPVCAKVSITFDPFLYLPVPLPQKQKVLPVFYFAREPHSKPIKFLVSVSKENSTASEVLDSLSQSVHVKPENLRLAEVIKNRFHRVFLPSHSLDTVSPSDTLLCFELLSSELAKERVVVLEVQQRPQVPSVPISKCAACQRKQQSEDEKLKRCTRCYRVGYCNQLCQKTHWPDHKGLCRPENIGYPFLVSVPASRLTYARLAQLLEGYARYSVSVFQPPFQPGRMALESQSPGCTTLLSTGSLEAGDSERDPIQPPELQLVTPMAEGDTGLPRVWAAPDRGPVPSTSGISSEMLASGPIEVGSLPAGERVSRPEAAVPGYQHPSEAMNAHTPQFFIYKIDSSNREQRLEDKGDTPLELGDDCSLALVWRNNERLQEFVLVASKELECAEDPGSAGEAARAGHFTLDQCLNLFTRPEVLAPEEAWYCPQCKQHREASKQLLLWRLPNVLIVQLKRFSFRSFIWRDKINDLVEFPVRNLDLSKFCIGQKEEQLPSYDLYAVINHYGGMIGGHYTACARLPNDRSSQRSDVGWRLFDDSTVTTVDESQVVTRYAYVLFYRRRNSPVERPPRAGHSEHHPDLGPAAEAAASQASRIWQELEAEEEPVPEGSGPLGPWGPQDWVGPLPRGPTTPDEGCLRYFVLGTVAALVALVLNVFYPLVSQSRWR
How it was run: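 Full-length USP19 preincubated 30 min at RT with inhibitor (200 μM to 2 μM series, 8–18 points) before adding 500 nM Ubiquitin-Lys-TAMRA substrate.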

Q: With `O=C(N1CCC(O)(Cn2ccc(-c3ccccc3)c(F)c2=O)C2(CCCC2)C1)N1CCNC[C@H]1c1ccccc1` (stereo partly drawn) [Example 332, 3-Fluoro-1-((10-hydroxy-7-((R)-2-phenylpiperazine-1-carbonyl)-7-azaspiro[4.5]decan-10-yl)methyl)-4-phenylpyridin-2(1H)-one] as the molecule, how does the IC50 read?
A: Its IC50 is 500 to 5000 nM.

Q: For `O=C(N1CCC(O)(Cn2cnc(-c3ccccc3)cc2=O)C2(CCCC2)C1)N1CCSCC1c1ccccc1` [Example 333, (S)-3-((10-Hydroxy-7-(3-phenylthiomorpholine-4-carbonyl)-7-azaspiro[4.5]decan-10-yl)methyl)-6-phenylpyrimidin-4(3H)-one], which IC50 is on record?
A: The IC50 was under 500 nM.

Q: For `N=S1(=O)CCN(C(=O)N2CC[C@@](O)(Cn3cnc(-c4ccccc4)cc3=O)C3(CCCC3)C2)C(c2ccccc2)C1` (stereo partly drawn) [Example 334, 3-(((10S)-10-Hydroxy-7-(1-imino-1-oxido-3-phenyl-1λ^6-thiomorpholine-4-carbonyl)-7-azaspiro[4.5]decan-10-yl)methyl)-6-phenylpyrimidin-4(3H)-one], which IC50 is on record?
A: The IC50 was under 500 nM.

Q: How did the IC50 turn out when `O=C(N1CC[C@@](O)(Cn2cnc(-c3ccccc3)cc2=O)C2(CCCC2)C1)N1CCS(=O)(=O)CC1c1ccccc1` (stereo partly drawn) [Example 335, (S)-3-((7-(1,1-Dioxido-3-phenylthiomorpholine-4-carbonyl)-10-hydroxy-7-azaspiro[4.5]decan-10-yl)methyl)-6-phenylpyrimidin-4(3H)-one] was run?
A: The IC50 was under 500 nM.

Q: With `O=C(N1CC[C@@](O)(Cn2cnc(-c3ccccc3)cc2=O)C2(CCCC2)C1)N1CCNCC1c1ccc(C(F)(F)F)cc1` (stereo partly drawn) [Example 336, 3-(((10S)-10-Hydroxy-7-(2-(4-(trifluoromethyl)phenyl)piperazine-1-carbonyl)-7-azaspiro[4.5]decan-10-yl)methyl)-6-phenylpyrimidin-4(3H)-one] as the molecule, how does the IC50 read?
A: Its IC50 is under 500 nM.

Q: Which IC50 does the source give for `O=C(N1CC[C@@](O)(Cn2cnc(-c3ccccc3)cc2=O)C2(CCCC2)C1)N1CCNCC1c1ccsc1` (stereo partly drawn) [Example 337, 3-(((10S)-10-Hydroxy-7-(2-(thiophen-3-yl)piperazine-1-carbonyl)-7-azaspiro[4.5]decan-10-yl)methyl)-6-phenylpyrimidin-4(3H)-one] here?
A: Its IC50 is under 500 nM.

Q: Which IC50 does the source give for `COc1cccc(-c2cc(=O)n(C[C@]3(O)CCN(C(=O)N4CCNC[C@H]4c4ccccc4)CC34CCCC4)cn2)c1` [Example 338, 3-(((S)-10-Hydroxy-7-((R)-2-phenylpiperazine-1-carbonyl)-7-azaspiro[4.5]decan-10-yl)methyl)-6-(3-methoxyphenyl) pyrimidin-4(3H)-one] here?
A: Its IC50 is under 500 nM.

Q: Which IC50 does the source give for `COc1ccc(-c2cc(=O)n(C[C@]3(O)CCN(C(=O)N4CCNC[C@H]4c4ccccc4)CC34CCCC4)cn2)cc1` [Example 339, 3-(((S)-10-Hydroxy-7-((R)-2-phenylpiperazine-1-carbonyl)-7-azaspiro[4.5]decan-10-yl)methyl)-6-(4-methoxyphenyl) pyrimidin-4(3H)-one] here?
A: Its IC50 is under 500 nM.

Q: Which IC50 does the source give for `Cc1ccccc1-c1cc(=O)n(C[C@]2(O)CCN(C(=O)N3CCNC[C@H]3c3ccccc3)CC23CCCC3)cn1` [Example 340, 3-(((S)-10-Hydroxy-7-((R)-2-phenylpiperazine-1-carbonyl)-7-azaspiro[4.5]decan-10-yl)methyl)-6-(o-tolyl)pyrimidin-4(3H)-one] here?
A: Its IC50 is under 500 nM.

Q: Which IC50 does the source give for `Cc1cccc(-c2cc(=O)n(C[C@]3(O)CCN(C(=O)N4CCNC[C@H]4c4ccccc4)CC34CCCC4)cn2)c1` [Example 341, 3-(((S)-10-Hydroxy-7-((R)-2-phenylpiperazine-1-carbonyl)-7-azaspiro[4.5]decan-10-yl)methyl)-6-(m-tolyl)pyrimidin-4(3H)-one] here?
A: Its IC50 is under 500 nM.

Q: Which IC50 does the source give for `Cc1ccc(-c2cc(=O)n(C[C@]3(O)CCN(C(=O)N4CCNC[C@H]4c4ccccc4)CC34CCCC4)cn2)cc1` [Example 342, 3-(((S)-10-Hydroxy-7-((R)-2-phenylpiperazine-1-carbonyl)-7-azaspiro[4.5]decan-10-yl)methyl)-6-(p-tolyl)pyrimidin-4(3H)-one] here?
A: Its IC50 is under 500 nM.

Q: For `O=C(N1CC[C@@](O)(Cn2cnc(-c3cccs3)cc2=O)C2(CCCC2)C1)N1CCNC[C@H]1c1ccccc1` [Example 343, 3-(((S)-10-Hydroxy-7-((R)-2-phenylpiperazine-1-carbonyl)-7-azaspiro[4.5]decan-10-yl)methyl)-6-(thiophen-2-yl)pyri-midin-4(3H)-one], which IC50 is on record?
A: The IC50 was under 500 nM.

Q: Which IC50 does the source give for `O=C(N1CC[C@@](O)(Cn2cnc(-c3ccsc3)cc2=O)C2(CCCC2)C1)N1CCNC[C@H]1c1ccccc1` [Example 344, 3-(((S)-10-Hydroxy-7-((R)-2-phenylpiperazine-1-carbonyl)-7-azaspiro[4.5]decan-10-yl)methyl)-6-(thio-phen-3-yl)pyrimidin-4(3H)-one] here?
A: Its IC50 is under 500 nM.

Q: With `COc1ccc(-c2cc(=O)n(C[C@]3(O)CCN(C(=O)N4CCNC[C@H]4c4ccccc4)CC34CCCC4)cn2)s1` [Example 345, 3-(((S)-10-Hydroxy-7-((R)-2-phenylpiperazine-1-carbonyl)-7-azaspiro[4.5]decan-10-yl)methyl)-6-(5-methoxythiophen-2-yl)pyrimidin-4(3H)-one] as the molecule, how does the IC50 read?
A: The IC50 was under 500 nM.

Q: How did the IC50 turn out when `O=C(N1CC[C@@](O)(Cn2cnc(-c3ccc4c(c3)CCO4)cc2=O)C2(CCCC2)C1)N1CCNC[C@H]1c1ccccc1` [Example 346, 6-(2,3-Dihydrobenzofuran-5-yl)-3-(((S)-10-hydroxy-7-((R)-2-phenylpiperazine-1-carbonyl)-7-aza-spiro[4.5]decan-10-yl)methyl)pyrimidin-4(3H)-one] was run?
A: The IC50 was under 500 nM.

Q: For `O=C(N1CC[C@@](O)(Cn2cnc(-c3ccc4c(c3)COC4)cc2=O)C2(CCCC2)C1)N1CCNC[C@H]1c1ccccc1` [Example 347, 6-(1,3-Dihydro-isobenzofuran-5-yl)-3-(((S)-10-hydroxy-7-((R)-2-phenylpiperazine-1-carbonyl)-7-aza-spiro[4.5]decan-10-yl)methyl)pyrimidin-4(3H)-one], which IC50 is on record?
A: The IC50 was under 500 nM.

Q: How did the IC50 turn out when `O=C(N1CC[C@@](O)(Cn2cnc(N3CCCCC3)cc2=O)C2(CCCC2)C1)N1CCNC[C@H]1c1ccccc1` [Example 348, 3-(((S)-10-Hydroxy-7-((R)-2-phenylpiperazine-1-carbonyl)-7-aza-spiro[4.5]decan-10-yl)methyl)-6-(piperi-din-1-yl)pyrimidin-4(3H)-one] was run?
A: The IC50 was under 500 nM.

Q: Which IC50 does the source give for `O=C(N1CC[C@@](O)(Cn2cnc(-c3ccc(Cl)cc3)cc2=O)C2(CCCC2)C1)N1CCNC[C@H]1c1ccccc1` [Example 349, 6-(4-Chlorophenyl)-3-(((S)-10-hydroxy-7-((R)-2-phenylpiperazine-1-carbonyl)-7-aza-spiro[4.5]decan-10-yl)methyl)pyrimidin-4(3H)-one] here?
A: Its IC50 is under 500 nM.

Q: How did the IC50 turn out when `O=C(N1CC[C@@](O)(Cn2cnc(-c3ccc(OC4CC4)cc3)cc2=O)C2(CCCC2)C1)N1CCNC[C@H]1c1ccccc1` [Example 350, 6-(4-Cyclo-propoxyphenyl)-3-(((S)-10-hydroxy-7-((R)-2-phenylpipera-zine-1-carbonyl)-7-azaspiro[4.5]decan-10-yl)methyl)pyrimi-din-4(3H)-one] was run?
A: Its IC50 is under 500 nM.

Q: Which IC50 does the source give for `O=C(N1CC[C@@](O)(Cn2cnc(N3CCC(F)(F)CC3)cc2=O)C2(CCCC2)C1)N1CCNC[C@H]1c1ccccc1` [Example 351, 6-(4,4-Difluoro-piperidin-1-yl)-3-(((S)-10-hydroxy-7-((R)-2-phenylpiperazine-1-carbonyl)-7-aza-spiro[4.5]decan-10-yl)methyl)pyrimidin-4(3H)-one] here?
A: Its IC50 is under 500 nM.

Q: For `O=C(N1CC[C@@](O)(Cn2cnc(N3CC4CC4C3)cc2=O)C2(CCCC2)C1)N1CCNC[C@H]1c1ccccc1` (stereo partly drawn) [Example 352, 6-(3-Aza-bicyclo[3.1.0]hexan-3-yl)-3-(((S)-10-hydroxy-7-((R)-2-phenylpiperazine-1-carbonyl)-7-aza-spiro[4.5]decan-10-yl)methyl)pyrimidin-4(3H)-one], which IC50 is on record?
A: Its IC50 is under 500 nM.

Q: How did the IC50 turn out when `O=C(N1CC[C@@](O)(Cn2cnc(-c3ccc4c(c3)OCC4)cc2=O)C2(CCCC2)C1)N1CCNC[C@H]1c1ccccc1` [Example 353, 6-(2,3-Dihydrobenzofuran-6-yl)-3-(((S)-10-hy-droxy-7-((R)-2-phenylpiperazine-1-carbonyl)-7-aza-spiro[4.5]decan-10-yl)methyl)pyrimidin-4(3H)-one] was run?
A: The IC50 was under 500 nM.
